Data on 4 compounds can be found in patent publication US5135849A, “In-vitro methods for identifying compositions which are agonists and antagonists of androgens” (priority 1989, dated 1992).

The structures appear in SMILES notation.

The subject of assay [1] is LNCaP cells. Description: Phase 1 protocol to identify androgen agonist properties (LNCaP cell proliferation in CDHS medium). The assay is classed as cell-based, human. The conditions noted are these: for CHARACTERISTICS: classification from Phase 1 and Phase 2 protocols; for PHASE 1 CELL COUNT: final cell number per well at the optimal test conc. An excerpt:
This protocol measures the potential agonistic properties of the substance under test. All manipulations are to be carried out under sterile conditions using disposable plastic tissue culture multiwell plates with all manipulations preferrably being performed in a tissue culture hood.
1. The cell line of choice is the LNCaP-FGC cell culture, an androgen-sensitive prostate tumor cell line. The LNaP cell line is routinely grown in 5% fetal bovine serum--supplemented Dulbecco's modified Eagle minimal essential medium (hereinafter "5% FBS/DME"), at 37° C. in a 95% air--5% CO2 atmosphere.
2. The cultured cells growing in 5% FBS/DME are harvested by treatment with trypsin (1:250)--EDTA (0.2%). The cells are detached by brief exposure to trypsin for about two minutes. To avoid excessive proteolysis, the reaction is quenched by addition of equal volumes of 5% FBS/DME. The resulting cell suspension is collected into a sterile centrifuge tube and resuspended by pipetting gently. The aliquots of this cell suspension thus obtained are dispersed by means of a Skatron dispenser into individual wells containing the seedling medium (1 ml of 5% FBS/DME per well) of a multiwell plate. Each final prepared suspension preferably contains 50,000 cells in a volume of 1.0 ml. It is desirable that the number of cells be counted and verified by means of a Coulter Counter (Coulter Electronics, Hialeah, FL).
The number of wells in each plate will correspond to the number of concentrations per test substances to be evaluated and thus is merely a question of choice or convenience to the user. Into each well, 25 microliter (hereinafter "ul") aliquots of the prepared cell suspension are added using a 1.0 ml syringe fitted with a 19 gauge needle attached to a repetitive Dunn pipetter (Skatron Dispenser). The microtiter plate is then gently shaken to avoid unequal cell distribution within each individual well. The seeded cells are then allowed to attach to the plastic surface of the well proper over a period of 24-72 hours' duration after which the fluid is changed to the experimental maintaining medium.
3 At the time of test, all the seeded cells in each well of the multiwell plate receive 10% heat inactivated--charcoal-dextran human stripped serum (CDHS) in DME at a volume of 0.9 ml per well. Although higher concentrations of CDHS may be utilized up to and including 40% concentrations, the 10% concentration is most preferred.
5. To the other prepared (seeded) wells, 100 ul of the test substance to be evaluated is added as a 10X stock solution to achieve final concentrations ranging from 10^-5 M to at least 10^-12 M. The substance under test is preferably prepared as a stock solution in ethanol, most preferrably as a 10^-3 M solution. All dilutions from the stock preparation are made using DME. The ethanol concentration in the culture medium should be kept below […] by volume. This preparative technique and precaution avoids the need to filter the various volumes of test substance to achieve sterility. This is particularly valuable because steroidal compositions are known to become adsorbed to the commercially obtained filter membranes used for sterilization. The addition of the test substance in appropriate concentrations to the cultured cells and the maintaining medium forms a series of individual reaction mixtures, each of which is varied only by the concentration of the test substance present in the well.
6. After the series of individual reaction mixtures are formed, all of the cultured cells under test in each well of the microtiter plate are incubated at 37° C. preferably in an atmosphere of 5% CO2 /95% air under saturating humidity. During this incubation time, it is desired and preferred that the cultured cells employed in the test be maintained in an atmosphere most advantageous for survival and growth of that cell line. The incubation period preferably is in the range of from 5 to 7 days' duration.

Assay [2] concerns LNCaP cells. Description: Proliferation rate (doubling time) of LNCaP cells in 10% CDHS. The conditions noted are these: compared with 5α-DHT. The assay is classed as cell-based, human. The procedure:
8. To obtain reproducible, accurate, and reliable data consistently using this protocol, a series of quality assurance measures should be employed. […] These goals are achieved using the optimal 5-7 day incubation period. […] For this innoculum, cells are harvested every 24-48 hours (preferably as triplicate samples) until the entire 5-7 day incubation period expires. A good estimate of the proliferation rate is the mean generation time, "tD ". tD is calculated from the equation α=1/txln Ct /Co , where Co is the initial cell number, Ct is the cell number at time-t, and α is the instantaneous cell proliferation constant (tD is the value ln Ct /Co x would have when Ct =2Co) "tD " is expressed in time units, i.e., hr. The slopes of the different growth curves are calculated by fitting the experimental data to a straight line by regression analysis of the pairs ln cell numbers/time. to is defined as the moment at which the seeding medium is replaced by the maintaining medium.
The inhibitory effect of CD human sera was not instantaneous; at the end of 3 to 4 days the population increase was halted and remained stable for up to 30 days without media changes.

Assay [3] relates to LNCaP cells. Description: Phase 2 protocol for androgen antagonistic properties (LNCaP proliferation with 3×10^-10 M 5α-DHT plus test substance). The conditions noted are these: Phase 2 protocol.
A further assay has as its target T1, androgen receptor (Homo sapiens, UniProt P10275, T878A).
T1 construct: the presence of specific androgen receptors in LNCaP cells; endogenous in cells; extract or intact cells for the saturation analysis
Description: Competition for androgen receptors with 3H-testosterone in LNCaP cytosol-nuclear extracts (RBA). In kind it is binding. The procedure:
(§1) Steroid receptors measurement: The presence of intracellular sex steroid binding proteins was investigated in whole cell extracts as well as in intact cells. Cytosolic and nuclear extracts were obtained after centrifugation (105,000 g, 45 min.) of a sonicated cellular suspension in TKE buffer (10 mM Tris, 500 mM KCl, 0.5 mM EDTA, pH 7.4). Aliquots of this extract were incubated for 18 hours at 4° C. with increasing concentrations (2×10^- M to 2×10^-8 M) of labelled steroids, with and without a 200-fold excess of the corresponding unlabelled steroid. Bound and free fractions were separated by dextran-coated charcoal adsorption. Intact cells grown in monolayer culture were assayed for specific steroid binding [Olea-Serrano et al., Eur. J. Cancer Clin. Oncol. 21:965-973 (1983)]. Briefly, the cells were incubated in 12-well plates during 50 minutes at 37° C. in DME containing the labelled steroid with and without excess of cold competitor. The range of concentrations used was the same as that in the cytosolic-nuclear extract assay. […] The intracellular radioactivity was extracted with ethanol after ice-cold PBS washing. In both types of experiments, Scatchard analysis of the saturation data was used to quantify the maximal binding capacity (Bmax) and the affinity parameters (dissociation constant, Kd) using the SCAFIT program [Munson et al., Anal. Biochem. 107:220-239 (1980)].
Cytosol-nuclear extracts were used to study competition for androgen receptors. […] The relative binding affinity (RBA) was calculated from the equation: […]

Assay [4] has as its system 3H-E2 binding in LNCaP cells. Description: Competition with 3H-E2 binding in LNCaP cells. More on the design: species or system human. The method, then: as §1

T1 sequence (P10275 whole entry T878A): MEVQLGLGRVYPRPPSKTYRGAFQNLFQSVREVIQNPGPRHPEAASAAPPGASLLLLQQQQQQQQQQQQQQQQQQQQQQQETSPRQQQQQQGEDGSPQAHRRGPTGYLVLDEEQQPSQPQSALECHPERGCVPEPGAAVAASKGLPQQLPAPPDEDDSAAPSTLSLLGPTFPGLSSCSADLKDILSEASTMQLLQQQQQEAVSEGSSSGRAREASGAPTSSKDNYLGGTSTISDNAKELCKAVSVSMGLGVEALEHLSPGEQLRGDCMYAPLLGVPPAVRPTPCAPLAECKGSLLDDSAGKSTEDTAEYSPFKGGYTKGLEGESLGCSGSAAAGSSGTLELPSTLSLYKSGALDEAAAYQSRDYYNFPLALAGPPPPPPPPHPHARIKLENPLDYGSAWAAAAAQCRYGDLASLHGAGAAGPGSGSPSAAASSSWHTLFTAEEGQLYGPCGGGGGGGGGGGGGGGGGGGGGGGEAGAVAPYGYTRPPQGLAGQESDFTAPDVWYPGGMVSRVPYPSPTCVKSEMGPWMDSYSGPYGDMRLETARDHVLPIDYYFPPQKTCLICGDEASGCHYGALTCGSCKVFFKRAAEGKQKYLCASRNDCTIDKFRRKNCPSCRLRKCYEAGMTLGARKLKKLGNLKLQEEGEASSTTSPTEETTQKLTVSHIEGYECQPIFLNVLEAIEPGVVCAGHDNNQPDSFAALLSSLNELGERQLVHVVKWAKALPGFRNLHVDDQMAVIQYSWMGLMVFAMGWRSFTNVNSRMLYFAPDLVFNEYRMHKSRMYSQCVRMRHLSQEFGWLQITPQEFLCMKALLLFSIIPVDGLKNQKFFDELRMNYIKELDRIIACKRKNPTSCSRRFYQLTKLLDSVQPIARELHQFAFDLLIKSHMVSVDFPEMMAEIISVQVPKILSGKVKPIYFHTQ

`C[C@]12CC[C@@H]3c4ccc(O)cc4CC[C@H]3[C@@H]1CC[C@@H]2O` [estradiol 17β, estra-1,3,5(10)-triene-3,17-diol]: the CHARACTERISTICS result with LNCaP cells [1] is reported as “full agonist”; in the assay on LNCaP cells [1] (listed as estradiol-17β), “full agonists”. Further, the “PHASE 1 CELL COUNT” value in the assay with LNCaP cells [1] (10% CDHS) was 4.0 × 10^5. In the assay with LNCaP cells [2], the “population doubling time, in words” value is “slightly shorter population doubling time”. Further, the “antagonistic activity, in words” value in the assay on LNCaP cells [3] is reported as “no antagonistic activity”.
Consider `C#C[C@]1(O)CC[C@H]2[C@@H]3CCc4cc(O)ccc4[C@H]3[C@@H](OC)C[C@@]21C` [R2858, 11β-methoxy-19-nor-17a-1,3,5(10)-trien-20-yne-3,17-diol], for which the “PHASE 1 CELL COUNT” value in the assay on LNCaP cells [1] (10% CDHS) was 5 × 10^4. For the same compound, the “RBA (relative binding affinity to the androgen receptor)” value at androgen receptor (Table II, 5α-DHT = 100, 6×10^-9 M 3H-testosterone) is reported as < 0.01. In addition, the “competition with 3H-E2 binding, in words” value in assay [4] is “did not compete”.
In the case of `CC(C)(O)C(=O)Nc1ccc([N+](=O)[O-])c(C(F)(F)F)c1` [hydroxyflutamide], the “cell yields compared with DHT alone, in words” value with LNCaP cells [1] (3×10^-8 M, 10% CDHS) is listed as “increased cell yields at values consistently above those obtained with DHT alone”. Also, the “RPP (relative proliferation potency)” value in the assay on LNCaP cells [1] (Table III, Testosterone = 1, 10^5 cell inoculum grown in CDHS for 7 days) is given as 0.01. In addition, in the assay with LNCaP cells [1], the CHARACTERISTICS entry is “full agonist”. Moreover, the “PHASE 1 CELL COUNT” value with LNCaP cells [1] (10% CDHS) is given as 3.9 × 10^5. Besides, the “RBA (relative binding affinity to the androgen receptor extracted from LNCaP)” value on androgen receptor (Table III, Testosterone = 1) was determined as 0.004. In addition, the “antagonistic activity, in words” value with LNCaP cells [3] is on record as “absence of antagonistic effects”.
On to `CC/C(=C(/CC)c1ccc(O)cc1)c1ccc(O)cc1` [DES, diethylstilbestrol], for which the “agonistic / proliferative activity, in words” value with LNCaP cells [1] (Phase 1 protocol, CDHS-supplemented media) was “no agonistic activity at all”. Besides, the CHARACTERISTICS result in the assay with LNCaP cells [1] was “full antagonist”. Also, in the assay with LNCaP cells [1] (10% CDHS), the “PHASE 1 CELL COUNT” value was 5 × 10^4. Besides, in assay [4], the “competition with 3H-E2 binding, in words” value is reported as “did not compete”.
